{"source": "patent US10745398B2", "about": "“2-(het)aryl-substituted fused heterocycle derivatives as pesticides” (Bayer CropScience Aktiengesellschaft, priority 2015, dated 2020)", "key": {"[1]": {"tested_on": "larvae of the mustard beetle (Phaedon cochleariae)", "assay": "Phaedon cochleariae - spray test", "format": "in vivo", "settings": "application rate 500 g/ha, Chinese cabbage leaf discs, after 7 days", "method": "(§1) Solvent: 78.0 parts by weight of acetone • • 1.5 parts by weight of dimethylformamide\n(§2) Emulsifier: alkylaryl polyglycol ether\n(§3) To produce a suitable active compound preparation, 1 part by weight of active compound is dissolved with the stated parts by weight of solvent and made up with water containing an emulsifier concentration of 1000 ppm until the desired concentration is attained. To produce further test concentrations, the preparation is diluted with emulsifier-containing water.\nAfter 7 days, the efficacy in % is determined. 100% means that all the beetle larvae have been killed; 0% means that no beetle larvae have been killed."}, "[2]": {"tested_on": "caterpillars of the armyworm (Spodoptera frugiperda)", "assay": "Spodoptera frugiperda - spray test", "format": "in vivo", "settings": "application rate 500 g/ha, maize leaf discs, after 7 days", "method": "as §1, §2, §3\nLeaf discs of maize (Zea mays) are sprayed with an active compound preparation of the desired concentration and, after drying, populated with caterpillars of the armyworm (Spodoptera frugiperda).\nAfter 7 days, the efficacy in % is determined. 100% means that all the caterpillars have been killed; 0% means that no caterpillar has been killed."}, "[3]": {"assay": "log P (neutral) by HPLC on reversed-phase column (C 18), EEC Directive 79/831 Annex V.A8", "format": "physicochemical", "settings": "HPLC reversed-phase C 18, 55° C., neutral range pH 7.8, ammonium hydrogencarbonate/acetonitrile"}}}
{"compound": "CCS(=O)(=O)c1ccc(-n2nc(C(F)(F)F)n(-c3ccccc3)c2=O)nc1-c1nc2cc(C(F)(F)F)ncc2n1C", "note": "[Example I-22]", "values": [{"measurement": "efficacy (beetle larvae killed)", "setting": "[1]", "result": 100, "unit": "%"}, {"measurement": "efficacy (caterpillars killed)", "setting": "[2]", "result": 100, "unit": "%"}]}
{"compound": "CCS(=O)(=O)c1ccc(-n2cnc(-c3cccnc3)n2)nc1-c1nc2cc(C(F)(F)F)ncc2n1C", "note": "[Example I-27]", "values": [{"measurement": "log P (neutral)", "setting": "[3]", "result": "Example I-27: logP (neutral): 2.54 1H-NMR(400.0 MHz, d6-DMSO): □ ="}, {"measurement": "efficacy (beetle larvae killed)", "setting": "[1]", "result": 100, "unit": "%"}, {"measurement": "efficacy (caterpillars killed)", "setting": "[2]", "result": 100, "unit": "%"}]}
{"compound": "CCS(=O)(=O)c1ccc(-n2cnn(-c3ccccc3F)c2=O)nc1-c1nc2cc(C(F)(F)F)ccc2n1C", "note": "[Example I-34]", "values": [{"measurement": "efficacy (beetle larvae killed)", "setting": "[1]", "result": 100, "unit": "%"}, {"measurement": "efficacy (caterpillars killed)", "setting": "[2]", "result": 100, "unit": "%"}]}
{"compound": "CCS(=O)(=O)c1ccc(N2CCN(c3ccc(Cl)cc3)C2=O)nc1-c1nc2cc(C(F)(F)F)ncc2n1C", "note": "[Example I-5]", "values": [{"measurement": "log P (neutral)", "setting": "[3]", "result": "Example I-5: logP (neutral): 3.86 ^1H-NMR(400.0 MHz, d6-DMSO): δ ="}, {"measurement": "efficacy (beetle larvae killed)", "setting": "[1]", "result": 100, "unit": "%"}, {"measurement": "efficacy (caterpillars killed)", "setting": "[2]", "result": 100, "unit": "%"}]}
{"compound": "CCS(=O)(=O)c1ccc(-n2cc(-c3ccc(Cl)cc3)cn2)nc1-c1nc2cc(C(F)(F)F)ncc2n1C", "note": "[Example I-10]", "values": [{"measurement": "log P (neutral)", "setting": "[3]", "result": "Example I-10: logP (neutral): 4.33 ^1H-NMR(400.0 MHz, d6-DMSO): δ ="}, {"measurement": "efficacy (beetle larvae killed)", "setting": "[1]", "result": 100, "unit": "%"}]}
{"compound": "CCS(=O)(=O)c1ccc(-n2nnn(-c3ccccc3Cl)c2=O)nc1-c1nc2cc(C(F)(F)F)ncc2n1C", "note": "[Example I-4]", "values": [{"measurement": "efficacy (caterpillars killed)", "setting": "[2]", "result": 100, "unit": "%"}]}
{"compound": "CCS(=O)(=O)c1ccc(-n2ccc(-c3ccccc3Cl)n2)nc1-c1nc2cc(C(F)(F)F)ncc2n1C", "note": "[Example I-13]", "values": [{"measurement": "log P (neutral)", "setting": "[3]", "result": "Example I-13: logP (neutral): 4.58 ^1H-NMR(400.0 MHz, d6-DMSO): δ ="}, {"measurement": "efficacy (beetle larvae killed)", "setting": "[1]", "result": 100, "unit": "%"}]}
{"compound": "CCS(=O)(=O)c1ccc(-c2cc(-c3ccccc3)no2)nc1-c1nc2cc(C(F)(F)F)ncc2n1C", "note": "[Example I-31]", "values": [{"measurement": "log P (neutral)", "setting": "[3]", "result": "Example I-31: logP (neutral): 3.81 1H-NMR(400.0 MHz, d6-DMSO): □ ="}, {"measurement": "efficacy (caterpillars killed)", "setting": "[2]", "result": 100, "unit": "%"}]}
{"compound": "CCS(=O)(=O)c1ccc(-n2cnn(-c3c(F)cccc3F)c2=O)nc1-c1nc2cc(C(F)(F)F)ncc2n1C", "note": "[Example I-20]", "values": [{"measurement": "log P (neutral)", "setting": "[3]", "result": "Example I-20: logP (neutral): 3.13 1H-NMR(400.0 MHz, d6-DMSO): □ ="}]}
{"compound": "CCS(=O)(=O)c1ccc(-n2cnn(-c3ccccc3F)c2=O)nc1-c1cn2cnc(C(F)(F)F)cc2n1", "note": "[Example I-35, 4-{5-(Ethylsulfonyl)-6-[7-(trifluoromethyl)imidazo[1,2-c]pyrimidine-2-yl]pyridin-2-yl}-2-(2-fluorophenyl)-2,4-dihydro-3H-1,2,4-triazol-3-one]", "values": [{"measurement": "chromatographic logP", "setting": "[3]; reversed-phase HPLC column (C 18)", "result": 3.16}, {"measurement": "efficacy (beetle larvae killed)", "setting": "[1]", "result": 100, "unit": "%"}, {"measurement": "efficacy (caterpillars killed)", "setting": "[2]", "result": 100, "unit": "%"}]}
{"compound": "CCS(=O)(=O)c1ccc(-n2cc(-c3ccc(F)cc3)cn2)nc1-c1nc2cc(C(F)(F)F)ncc2n1C", "note": "[Example I-11]", "values": [{"measurement": "log P (neutral)", "setting": "[3]", "result": "Example I-11: logP (neutral): 4.17 ^1H-NMR(400.0 MHz, d6-DMSO): δ ="}, {"measurement": "efficacy (beetle larvae killed)", "setting": "[1]", "result": 100, "unit": "%"}]}
{"compound": "CCS(=O)(=O)c1ccc(-n2cc(-c3ccccc3)cn2)nc1-c1nc2cc(C(F)(F)F)ncc2n1C", "note": "[Example I-9]", "values": [{"measurement": "log P (neutral)", "setting": "[3]", "result": "Example I-9: logP (neutral): 3.92 ^1H-NMR(400.0 MHz, d6-DMSO): δ ="}, {"measurement": "efficacy (beetle larvae killed)", "setting": "[1]", "result": 100, "unit": "%"}, {"measurement": "efficacy (caterpillars killed)", "setting": "[2]", "result": 100, "unit": "%"}]}
{"compound": "CCS(=O)(=O)c1ccc(-n2cc(Cl)c(-c3ccc(F)c(Cl)c3)n2)nc1-c1nc2cc(C(F)(F)F)ncc2n1C", "note": "[Example I-25]", "values": [{"measurement": "log P (neutral)", "setting": "[3]", "result": "Example I-25: logP (neutral): 5.23 1H-NMR(400.0 MHz, d6-DMSO): □ ="}, {"measurement": "efficacy (beetle larvae killed)", "setting": "[1]", "result": 100, "unit": "%"}]}
{"compound": "CCS(=O)(=O)c1ccc(-n2ccc(-c3ccco3)n2)nc1-c1nc2cc(C(F)(F)F)ncc2n1C", "note": "[Example I-14]", "values": [{"measurement": "log P (neutral)", "setting": "[3]", "result": "Example I-14: logP (neutral): 3.47 1H-NMR(601.6 MHz, d6-DMSO): □ ="}]}
